Data as given in patent publication US8466202B2, “Anthracenedione compounds” (Sunten Phytotech Co., Ltd., priority 2006, dated 2013).
“And” between values parts separate entries of the source, which are not always exact repeats. Identical values can stand only once.

Tests used:
[1] = Body weight of rats over the 10-day period (Example 3); assay type: in vivo, rat; design: Body weight Difference: unit not given here; settings: Sennosides 3.35 mg/kg/day; for Body weight Difference, Mean / Body weight End Day 10, Mean: group mean; for Body weight Difference, Mean / Body weight Difference: Day 10 minus Day 1; for Body weight Difference / Body weight End Day 10: individual rats
Procedure: The aforementioned STD05 and compounds were studied for the laxative activity. Healthy male S.D. rats (BioLASCO Taiwan Co. Ltd.) were divided into three groups (i.e., Groups 1-3) in this study. In Group I, 6 rats, as negative control, were given no treatment; 6 rats, as positive control, were given 3.35 mg/kg/day Sennosides (Through®, Chung Mei Pharmaceutical Co., Ltd; Active ingredient: Sennosides 20 mg, as sennoside A+B 12 mg, Lot. 012F 006); 6 rats were treated STD05 (8 mg/kg/day); 6 rats were treated with an extract fraction containing aloe-emodin, rhein, and emodin (“ARE”, 8 mg/kg/day); 6 rats were treated with Aloe-emodin (4 mg/kg/day); and 6 rats were treated with Rhein (4 mg/kg/day). In Group II, 6 rats, as negative control, were given no treatment; 6 rats, as positive control, were given 3.35 mg/kg/day Sennosides; 6 rats were treated STD05 (24 mg/kg/day); 6 rats were treated with an extract fraction containing ARE (24 mg/kg/day); 6 rats were treated with Chrysophanol (4 mg/kg/day); and 6 rats were treated with Emodin (4 mg/kg/day). In Group III, 6 rats, as negative control, were given no treatment; 6 rats were treated with Physcoin (4 mg/kg/day); and 6 rats were treated with a mixture of chrysophanol and physcion (8 mg/kg/day, “CP”). The experiments were carried out under controlled temperature, humidity, and lighting. Each rat was fed standard rat food and water ad libitum in housing that provided a 12-hour light/dark cycle. For statistical comparison, all of the rats were divided into six sets according to the body weights. The first part of the experiment studied the effect of the test substances on feces production. During the 10-day period, the body weights of the rats were weighed each day and recorded. The rat's feces was also studied three times in the manner described above during the 10-day period for any unusual observations. During the 10-day period, any rat that appeared dying was euthanized, dissected, and examined for any illness or injury. Any complications or illness were analyzed by H&E stains to determine the cause of death and to allow for dosage reconsiderations for future experiments. Summarized in Table 4 below are the effects of the compounds, mixtures, or extracts on the rat body weights.

healthy male S.D. rats = test: Feces production in rats over the 10-day period (Example 3); assay type: in vivo, rat; settings: for increase of the feces amount (wet weight): vs control of the same group; for Pellet count / Water content / Wet Weight: Sennosides 3.35 mg/kg; for increase of the feces amount (wet weight), average: average of Days 1, 5 and 10
Procedure: During this period, the body weights of the rats were weighed each day and recorded. Feces of each rat were studied three times during the period for any unusual observations. Specifically, the amounts of feces were weighed on Days 11, 15, 18, and 21. During observation, each rat was placed in a metabolic cage. Feces were collected every twenty-four hours. The number of collected feces pellets was counted, and the pellets' shapes and colors were evaluated. After weighing the moist feces, they were dried in an oven at 100° C. for twenty-four hours. The water content from the feces was calculated according to the following formula: Water content percentage=[(wet weight−dry weight)/wet weight]×100%. (I) The results are summarized in Table 2 below: The aforementioned STD05 and compounds were studied for the laxative activity. Healthy male S.D. rats (BioLASCO Taiwan Co. Ltd.) were divided into three groups (i.e., Groups 1-3) in this study. In Group I, 6 rats, as negative control, were given no treatment; 6 rats, as positive control, were given 3.35 mg/kg/day Sennosides (Through®, Chung Mei Pharmaceutical Co., Ltd; Active ingredient: Sennosides 20 mg, as sennoside A+B 12 mg, Lot. 012F 006); 6 rats were treated STD05 (8 mg/kg/day); 6 rats were treated with an extract fraction containing aloe-emodin, rhein, and emodin (“ARE”, 8 mg/kg/day); 6 rats were treated with Aloe-emodin (4 mg/kg/day); and 6 rats were treated with Rhein (4 mg/kg/day). In Group II, 6 rats, as negative control, were given no treatment; 6 rats, as positive control, were given 3.35 mg/kg/day Sennosides; 6 rats were treated STD05 (24 mg/kg/day); 6 rats were treated with an extract fraction containing ARE (24 mg/kg/day); 6 rats were treated with Chrysophanol (4 mg/kg/day); and 6 rats were treated with Emodin (4 mg/kg/day). In Group III, 6 rats, as negative control, were given no treatment; 6 rats were treated with Physcoin (4 mg/kg/day); and 6 rats were treated with a mixture of chrysophanol and physcion (8 mg/kg/day, “CP”). The experiments were carried out under controlled temperature, humidity, and lighting. Each rat was fed standard rat food and water ad libitum in housing that provided a 12-hour light/dark cycle. For statistical comparison, all of the rats were divided into six sets according to the body weights. The first part of the experiment studied the effect of the test substances on feces production. During the 10-day period, the body weights of the rats were weighed each day and recorded. The rat's feces was also studied three times in the manner described above during the 10-day period for any unusual observations. During the 10-day period, any rat that appeared dying was euthanized, dissected, and examined for any illness or injury. Any complications or illness were analyzed by H&E stains to determine the cause of death and to allow for dosage reconsiderations for future experiments. Summarized in Table 4 below are the effects of the compounds, mixtures, or extracts on the rat body weights. During the period, feces produced by the rats were studied days 1, 5, and 10 in the same manner described above. […] In the 10-day period, the rats administered with STD05 produced more feces (wet weight) that the rats in the control group by about 32%. In addition, the pellet counts for the rats administered with STD05 were greater than those for the control rats by about 20%. Furthermore, STD05 increased the water content in feces by about 18%. The same experiments were conducted on rats administered with physcion, aloe-emodin, chrysophanol, rhein, emodin, CP, and ARE.

[2] = Group I, STD05 8 mg/kg, ARE 8 mg/kg, Aloe-emodin 4 mg/kg, Rhein 4 mg/kg
[3] = Group I, Day 1, STD05 8 mg/kg, ARE 8 mg/kg, Aloe-emodin 4 mg/kg, Rhein 4 mg/kg
[4] = Group I, Day 5, STD05 8 mg/kg, ARE 8 mg/kg, Aloe-emodin 4 mg/kg, Rhein 4 mg/kg
[5] = Group I, Day 10, STD05 8 mg/kg, ARE 8 mg/kg, Aloe-emodin 4 mg/kg, Rhein 4 mg/kg
[6] = Group II, STD05 24 mg/kg, ARE 24 mg/kg, Chrysophanol 4 mg/kg, Emodin 4 mg/kg
[7] = Group II, Day 1, STD05 24 mg/kg, ARE 24 mg/kg, Chrysophanol 4 mg/kg, Emodin 4 mg/kg
[8] = Group II, Day 5, STD05 24 mg/kg, ARE 24 mg/kg, Chrysophanol 4 mg/kg, Emodin 4 mg/kg
[9] = Group II, Day 10, STD05 24 mg/kg, ARE 24 mg/kg, Chrysophanol 4 mg/kg, Emodin 4 mg/kg

Row | Structure (SMILES) | Body weight Difference, Mean [1, 2] [g] | Body weight End Day 10, Mean [1, 2] [g] | Body weight Difference [1, 2] | Body weight End Day 10 [1, 2] | increase of the feces amount (wet weight) (healthy male S.D. rats; Day 1) [%] | increase of the feces amount (wet weight) (healthy male S.D. rats; Day 5) [%] | increase of the feces amount (wet weight) (healthy male S.D. rats; Day 10) [%] | Pellet count (healthy male S.D. rats; [3]) | Water content (healthy male S.D. rats; [3]) [%] | Wet Weight (healthy male S.D. rats; [3]) [g] | Pellet count (healthy male S.D. rats; [4]) | Water content (healthy male S.D. rats; [4]) [%] | Wet Weight (healthy male S.D. rats; [4]) [g] | Pellet count (healthy male S.D. rats; [5]) | Water content (healthy male S.D. rats; [5]) [%] | Wet Weight (healthy male S.D. rats; [5]) [g] | increase of the feces amount (wet weight), average (healthy male S.D. rats) [%] | also measured
1 | O=C1c2cccc(O)c2C(=O)c2c(O)cc(CO)cc21 [Aloe-emodin] | 58 | 330 | 45 and 50 (2×) and 40 (2×) and 55 | 315 (2×) and 335 and 345 (2×) and 325 | 27 | 9 | 20 | 98 | 42.48 | 17.00 | 104 | 41.98 | 20.21 | 125 | 50.48 | 28.86 | 19 | –
2 | Cc1cc(O)c2c(c1)C(=O)c1cc(O)cc(O)c1C2=O [Emodin] | – | – | – | – | −30 | 12 | 4 | – | – | – | – | – | – | – | – | – | −5 | Body weight Difference, Mean [1, 6]: 32 g; Body weight End Day 10, Mean [1, 6]: 379 g; Body weight Difference [1, 6]: 30 and 35 (3×) and 45 and 10; Body weight End Day 10 ([1]; Group II, STD05 24 mg/kg, ARE 24 mg/kg, Chrysophanol 4 mg/kg, Emodin 4 mg/kg, in g (unit assumed)): 370 and 380 and 405 and 340 and 385 and 395; Pellet count (healthy male S.D. rats; [7]): 90; Water content (healthy male S.D. rats; [7]): 42.38%; Wet Weight (healthy male S.D. rats; [7]): 16.86 g; Pellet count (healthy male S.D. rats; [8]): 112; Water content (healthy male S.D. rats; [8]): 51.00%; Wet Weight (healthy male S.D. rats; [8]): 25.51 g; Pellet count (healthy male S.D. rats; [9]): 106; Water content (healthy male S.D. rats; [9]): 53.64%; Wet Weight (healthy male S.D. rats; [9]): 26.21 g
3 | O=C(O)c1cc(O)c2c(c1)C(=O)c1cccc(O)c1C2=O [Rhein] | 51 | 331 | 55 (4×) and 50 and 35 | 330 (2×) and 340 (2×) and 310 and 335 | 31 | −9 | −1 | 102 | 42.58 | 17.57 | 89 | 44.55 | 16.88 | 119 | 46.53 | 23.52 | 7 | –
